Laboratory results published in ChEMBL document CHEMBL2046314, “Chlorine atom substitution influences radical scavenging activity of 6-chromanol” (Bioorg Med Chem, 2012).

Tests used:
[1] = Hydroxyl radical scavenging activity assessed as reduction of DMPO-OH adduct formation using Fenton reaction by ESR spectroscopy; assay type: functional
[2] = Antioxidant activity assessed as second order rate constant for galvinoxyl radical scavenging activity in acetonitrile solution by UV-visible absorption spectroscopy; assay type: functional
[3] = Dissociation constant, pKa of the compound by UV-visible absorption spectroscopy; assay type: physicochemical

Structure (SMILES) | pKa [3] | Activity [1] | Activity [2] [M⁻¹ s⁻¹]
CC1(C)CCc2cc(O)ccc2O1 | 10.3 | Dose-dependent effect | 98
CC1(C)CCc2c(ccc(O)c2Cl)O1 | 8.6 | Dose-dependent effect | 37
CC1(C)CCc2cc(O)c(Cl)cc2O1 | 9.1 | Dose-dependent effect | 42
CC1(C)CCc2cc(O)cc(Cl)c2O1 | 9.8 | Dose-dependent effect | 21

Further lines, with some results ahead:

pKa [3] | Structure (SMILES) | Activity [1] | Activity [2] [M⁻¹ s⁻¹]
7.7 | CC1(C)CCc2c(cc(Cl)c(O)c2Cl)O1 | Dose-dependent effect | 67
7.1 | CC1(C)CCc2c(Cl)c(O)c(Cl)c(Cl)c2O1 | Dose-dependent effect | 54
